Laboratory results taken from patent US11160796B2, “Anti-androgens for the treatment of non-metastatic castration-resistant prostate cancer” (priority 2017, dated 2021).
Like-named read-outs stand apart in the source and are kept apart here. One block for each molecule: values may come before it.

How the values were obtained:
androgen receptor (AR) = androgen receptor (AR) (Homo sapiens, UniProt P10275); conditions: cited from earlier work
[1] = human, in vivo, po, 240 mg
[2] = Preclinical pharmacokinetic profile; assay type: in vivo; conditions: relative to apalutamide
[3] = target: T1, organic anion transporter 1 (OAT1) (Homo sapiens, UniProt Q4U2R8); experiment: In vitro transporter inhibition: OAT1
T1 sequence (Q4U2R8 1-563): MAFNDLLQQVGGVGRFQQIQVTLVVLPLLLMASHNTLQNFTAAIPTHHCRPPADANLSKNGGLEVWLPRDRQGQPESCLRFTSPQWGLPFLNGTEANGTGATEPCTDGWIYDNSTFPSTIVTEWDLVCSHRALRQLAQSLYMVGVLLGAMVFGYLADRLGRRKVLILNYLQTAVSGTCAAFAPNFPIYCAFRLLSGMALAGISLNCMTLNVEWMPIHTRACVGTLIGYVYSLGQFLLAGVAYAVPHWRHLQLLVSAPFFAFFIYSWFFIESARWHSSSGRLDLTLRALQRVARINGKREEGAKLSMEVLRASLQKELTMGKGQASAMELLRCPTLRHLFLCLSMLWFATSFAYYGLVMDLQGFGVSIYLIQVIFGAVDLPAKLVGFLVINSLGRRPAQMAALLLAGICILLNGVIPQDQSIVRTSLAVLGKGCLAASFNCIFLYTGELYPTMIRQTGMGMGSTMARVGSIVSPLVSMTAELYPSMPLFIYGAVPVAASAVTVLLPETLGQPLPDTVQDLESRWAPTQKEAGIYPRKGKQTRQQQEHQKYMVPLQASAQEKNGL

CYP1A2 and CYP2D6 = experiment: In vitro effect on CYP1A2 and CYP2D6; conditions: therapeutically relevant concentrations
human CYP2B6 and CYP3A4 = experiment: CYP induction in vitro (hepatocytes)
plasma proteins = experiment: Plasma protein binding; conditions: no concentration dependency
P-gp = P-gp (Homo sapiens, UniProt P08183); experiment: In vitro transporter substrate assessment: P-gp
[4] = system: CYP2C9, CYP2C19, and CYP3A4; experiment: In vitro CYP inhibition: CYP2C9, CYP2C19, CYP3A4
[5] = system: organic cation transporter 2 (OCT2), organic anion transporter 3 (OAT3) and multidrug and toxin extrusions (MATEs); experiment: In vitro transporter inhibition: OCT2, OAT3, MATEs; assay type: in vitro ADME
CYP2B6 and CYP2C8 = experiment: In vitro CYP inhibition: CYP2B6 and CYP2C8
[6] = system: BCRP, OATP1B1, and OATP1B3; experiment: In vitro transporter substrate assessment: BCRP, OATP1B1, OATP1B3
[7] = Single oral administration of 14C-labeled apalutamide 240 mg (metabolite profile, excretion)
[8] = human, in vivo
[9] = listed as N-desmethyl metabolite

Sequence of P-gp (P08183 whole entry): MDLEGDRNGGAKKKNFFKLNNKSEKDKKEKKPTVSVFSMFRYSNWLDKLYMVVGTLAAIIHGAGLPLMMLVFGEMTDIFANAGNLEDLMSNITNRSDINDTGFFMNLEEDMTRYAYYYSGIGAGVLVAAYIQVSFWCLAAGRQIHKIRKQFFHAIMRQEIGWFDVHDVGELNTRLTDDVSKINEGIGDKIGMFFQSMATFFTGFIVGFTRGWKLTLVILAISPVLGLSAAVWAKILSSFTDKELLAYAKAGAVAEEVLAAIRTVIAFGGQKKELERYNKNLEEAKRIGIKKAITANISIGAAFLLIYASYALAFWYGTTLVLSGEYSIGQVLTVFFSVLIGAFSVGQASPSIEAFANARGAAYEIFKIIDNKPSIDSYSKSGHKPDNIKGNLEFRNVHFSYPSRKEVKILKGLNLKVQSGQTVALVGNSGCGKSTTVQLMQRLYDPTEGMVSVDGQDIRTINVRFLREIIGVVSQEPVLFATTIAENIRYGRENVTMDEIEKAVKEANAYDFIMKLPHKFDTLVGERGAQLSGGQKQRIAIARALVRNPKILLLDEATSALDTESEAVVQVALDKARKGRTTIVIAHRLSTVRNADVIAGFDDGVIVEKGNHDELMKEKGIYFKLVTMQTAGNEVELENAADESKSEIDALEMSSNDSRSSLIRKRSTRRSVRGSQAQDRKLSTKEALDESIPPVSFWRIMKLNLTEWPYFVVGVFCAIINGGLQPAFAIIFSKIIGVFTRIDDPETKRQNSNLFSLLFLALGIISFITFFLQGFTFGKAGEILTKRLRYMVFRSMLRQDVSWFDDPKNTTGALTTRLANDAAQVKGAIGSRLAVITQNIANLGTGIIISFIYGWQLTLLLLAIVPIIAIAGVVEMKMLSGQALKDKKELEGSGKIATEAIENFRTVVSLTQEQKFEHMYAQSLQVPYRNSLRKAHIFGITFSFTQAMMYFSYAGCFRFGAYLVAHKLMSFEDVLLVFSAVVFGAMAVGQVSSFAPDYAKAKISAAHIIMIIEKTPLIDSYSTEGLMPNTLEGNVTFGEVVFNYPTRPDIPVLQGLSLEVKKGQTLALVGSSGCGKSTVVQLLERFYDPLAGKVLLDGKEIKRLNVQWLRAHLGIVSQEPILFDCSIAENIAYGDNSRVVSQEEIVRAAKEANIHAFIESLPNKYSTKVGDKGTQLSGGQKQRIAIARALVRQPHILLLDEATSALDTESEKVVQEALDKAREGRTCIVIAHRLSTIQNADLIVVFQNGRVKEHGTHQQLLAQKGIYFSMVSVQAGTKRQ
Sequence of androgen receptor (AR) (P10275 whole entry): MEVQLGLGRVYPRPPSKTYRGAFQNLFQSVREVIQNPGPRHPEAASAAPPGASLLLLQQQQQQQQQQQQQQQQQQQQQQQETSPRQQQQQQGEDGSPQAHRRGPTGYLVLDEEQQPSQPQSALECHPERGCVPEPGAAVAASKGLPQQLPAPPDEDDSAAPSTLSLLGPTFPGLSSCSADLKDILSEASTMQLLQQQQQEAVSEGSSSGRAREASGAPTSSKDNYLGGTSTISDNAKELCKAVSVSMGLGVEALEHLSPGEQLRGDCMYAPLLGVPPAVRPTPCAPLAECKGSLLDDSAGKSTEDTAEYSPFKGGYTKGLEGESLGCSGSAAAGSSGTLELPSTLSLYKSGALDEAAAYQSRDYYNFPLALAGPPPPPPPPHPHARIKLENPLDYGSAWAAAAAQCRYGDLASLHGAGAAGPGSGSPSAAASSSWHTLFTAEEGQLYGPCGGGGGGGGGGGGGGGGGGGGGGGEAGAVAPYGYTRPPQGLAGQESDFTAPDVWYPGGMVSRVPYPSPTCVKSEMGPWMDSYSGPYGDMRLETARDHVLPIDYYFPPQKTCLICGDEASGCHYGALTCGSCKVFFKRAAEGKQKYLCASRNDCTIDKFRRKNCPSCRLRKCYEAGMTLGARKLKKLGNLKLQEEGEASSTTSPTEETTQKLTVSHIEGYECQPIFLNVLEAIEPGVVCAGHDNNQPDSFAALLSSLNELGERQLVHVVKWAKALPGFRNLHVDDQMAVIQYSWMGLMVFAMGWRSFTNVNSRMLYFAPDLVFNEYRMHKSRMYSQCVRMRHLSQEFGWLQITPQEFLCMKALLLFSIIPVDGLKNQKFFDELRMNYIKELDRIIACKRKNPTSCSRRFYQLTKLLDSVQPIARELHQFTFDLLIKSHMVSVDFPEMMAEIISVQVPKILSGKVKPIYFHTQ

Molecule: CC(O)c1cc(C(=O)N[C@@H](C)Cn2ccc(-c3ccc(C#N)c(Cl)c3)n2)[nH]n1 (some centres unmarked) [Darolutamide]
binding affinity to AR (androgen receptor (AR)): high affinity

share of the total 14C-AUC in plasma [1]: 3%
Molecule: N#Cc1ncc(N2C(=O)C3(CCC3)N(c3ccc(C(=O)O)c(F)c3)C2=S)cc1C(F)(F)F [inactive carboxylic acid metabolite]

Molecule: N-desmethyl apalutamide
elimination half-life [2]: longer elimination half-life than apalutamide | inhibition of OAT1 [3]: do not inhibit | inhibition of OAT1 [3, 9]: No in vitro inhibition | effect on CYP1A2 and CYP2D6 (CYP1A2 and CYP2D6): do not affect | induction of human CYP2B6 and CYP3A4 in hepatocytes (human CYP2B6 and CYP3A4; concentrations up to 30 μM): inducers | CYP3A4 and CYP2B6 induction (human CYP2B6 and CYP3A4; in vitro studies): moderate to strong CYP3A4 and CYP2B6 inducers | bound to plasma proteins (plasma proteins): 95% | substrate for P-gp (P-gp): substrates for P-gp | inhibition of CYP2C9, CYP2C19, and CYP3A4 [4]: weak inhibitors | inhibition of OCT2, OAT3 and MATEs [5]: inhibit | inhibition of OCT2, OAT3 and MATEs [5, 9]: cannot be excluded | inhibition of CYP2B6 and CYP2C8 (CYP2B6 and CYP2C8): moderate inhibitors | substrate for BCRP, OATP1B1, and OATP1B3 [6]: not BCRP, OATP1B1, and OATP1B3 | share of the total 14C-AUC in plasma ([7]; single oral 240 mg): 44% | % of dose in feces as this compound ([7]; up to 70 days): 2% | % of dose in urine as this compound ([7]; up to 70 days): 2.7% | AUC at steady-state, mean [8]: 124 µg·h/mL | Cmax at steady-state, mean [8]: 5900 ng/mL | differences in pharmacokinetics in specific populations [8]: No clinically significant differences | AUC at steady-state, mean ([8]; 240 mg): 124 µg·h/mL | Cmax at steady-state, mean ([8]; 240 mg): 5900 ng/mL
